BindingDB's records for doi:10.1021/jm950372w (Rotta Research Laboratorium, 1996)
Where a name gives a salt, the structure may show the parent alone.

What was measured:
[1] = target: Gastrin/cholecystokinin type B receptor (Cavia porcellus); assay: Inhibition of binding of [3H]N-Me-N-Leu-CCK-8 to cholecystokinin type B receptor in guinea pig brain cortex
[2] = target: Gastrin/cholecystokinin type B receptor (Oryctolagus cuniculus); assay: In vitro inhibition of gastrin-induced [Ca2+] cytosolic elevation in isolated rabbit parietal cells

Row | SMILES | IC50 [1] | IC50 [2]
1 | O=C(CCC(NC(=O)c1cc(Cl)cc(Cl)c1)C(=O)N1CCC2(CCCC2)CC1)N[C@H](Cc1cccc2ccccc12)C(=O)O (stereo partly drawn) [(R)-2-[5-(8-Aza-spiro[4.5]dec-8-yl)-4-(3,5-dichloro-benzoylamino)-5-oxo-pentanoylamino]-3-naphthalen-1-yl-propionic acid] | 67 nM | 9 nM
2 | O=C(CCC(NC(=O)c1cc(Cl)cc(Cl)c1)C(=O)N1CCC2(CCCC2)CC1)N[C@H](Cc1ccc2ccccc2c1)C(=O)O (stereo partly drawn) [(R)-2-[5-(8-Aza-spiro[4.5]dec-8-yl)-4-(3,5-dichloro-benzoylamino)-5-oxo-pentanoylamino]-3-naphthalen-2-yl-propionic acid] | 129 nM | 24 nM
3 | O=C(CCC(NC(=O)c1cc(Cl)cc(Cl)c1)C(=O)N1CCC2(CCCC2)CC1)N[C@H](Cc1ccccn1)C(=O)O (stereo partly drawn) [(R)-2-[5-(8-Aza-spiro[4.5]dec-8-yl)-4-(3,5-dichloro-benzoylamino)-5-oxo-pentanoylamino]-3-pyridin-2-yl-propionic acid] | 155 nM | 307 nM
4 | O=C(O)C[C@@H](NC(=O)CCC(NC(=O)c1cc(Cl)cc(Cl)c1)C(=O)N1CCC2(CCCC2)CC1)C(=O)N1CCC2(CCCC2)CC1 (stereo partly drawn) [(R)-4-(8-Aza-spiro[4.5]dec-8-yl)-3-[5-(8-aza-spiro[4.5]dec-8-yl)-4-(3,5-dichloro-benzoylamino)-5-oxo-pentanoylamino]-4-oxo-butyric acid] | 1350 nM | 200 nM
5 | O=C(O)CC[C@@H](NC(=O)CCC(NC(=O)c1cc(Cl)cc(Cl)c1)C(=O)N1CCC2(CCCC2)CC1)C(=O)NCCCc1ccccc1 (stereo partly drawn) [(R)-4-[5-(8-Aza-spiro[4.5]dec-8-yl)-4-(3,5-dichloro-benzoylamino)-5-oxo-pentanoylamino]-4-(3-phenyl-propylcarbamoyl)-butyric acid] | 1860 nM | 117 nM
6 | O=C(O)CC[C@@H](NC(=O)CCC(NC(=O)c1cc(Cl)cc(Cl)c1)C(=O)N1CCC2(CCCC2)CC1)C(=O)Nc1cccc2ccccc12 (stereo partly drawn) [(R)-4-[5-(8-Aza-spiro[4.5]dec-8-yl)-4-(3,5-dichloro-benzoylamino)-5-oxo-pentanoylamino]-4-(naphthalen-1-ylcarbamoyl)-butyric acid] | 85 nM | 17 nM
7 | O=C(O)CC[C@@H](NC(=O)CCC(NC(=O)c1cc(Cl)cc(Cl)c1)C(=O)N1CCC2(CCCC2)CC1)C(=O)NCc1ccccc1 (stereo partly drawn) [(R)-4-[5-(8-Aza-spiro[4.5]dec-8-yl)-4-(3,5-dichloro-benzoylamino)-5-oxo-pentanoylamino]-4-benzylcarbamoyl-butyric acid] | 427 nM | 38 nM
8 | O=C(O)CC[C@@H](NC(=O)CCC(NC(=O)c1cc(Cl)cc(Cl)c1)C(=O)N1CCC2(CCCC2)CC1)C(=O)NCCc1ccccc1 (stereo partly drawn) [(R)-4-[5-(8-Aza-spiro[4.5]dec-8-yl)-4-(3,5-dichloro-benzoylamino)-5-oxo-pentanoylamino]-4-phenethylcarbamoyl-butyric acid] | 1110 nM | 398 nM
9 | O=C(O)CC[C@@H](NC(=O)CCC(NC(=O)c1cc(Cl)cc(Cl)c1)C(=O)N1CCC2(CCCC2)CC1)C(=O)N1CCC2(CCCC2)CC1 (stereo partly drawn) [(R)-5-(8-Aza-spiro[4.5]dec-8-yl)-4-[5-(8-aza-spiro[4.5]dec-8-yl)-4-(3,5-dichloro-benzoylamino)-5-oxo-pentanoylamino]-5-oxo-pentanoic acid] | 1690 nM | 206 nM
10 | O=C(CCC(NC(=O)c1cc(Cl)cc(Cl)c1)C(=O)N1CCC2(CCCC2)CC1)N[C@@H](Cc1c[nH]c2ccccc12)C(=O)O (stereo partly drawn) [(S)-2-[5-(8-Aza-spiro[4.5]dec-8-yl)-4-(3,5-dichloro-benzoylamino)-5-oxo-pentanoylamino]-3-(1H-indol-3-yl)-propionic acid] | 216 nM | 35 nM
11 | CN(Cc1ccccc1)C(=O)CC[C@H](NC(=O)CCC(NC(=O)c1cc(Cl)cc(Cl)c1)C(=O)N1CCC2(CCCC2)CC1)C(=O)O (stereo partly drawn) [(S)-2-[5-(8-Aza-spiro[4.5]dec-8-yl)-4-(3,5-dichloro-benzoylamino)-5-oxo-pentanoylamino]-4-(benzyl-methyl-carbamoyl)-butyric acid] | 78 nM | 55 nM
12 | O=C(CC[C@H](NC(=O)CCC(NC(=O)c1cc(Cl)cc(Cl)c1)C(=O)N1CCC2(CCCC2)CC1)C(=O)O)Nc1cccc2ccccc12 (stereo partly drawn) [(S)-2-[5-(8-Aza-spiro[4.5]dec-8-yl)-4-(3,5-dichloro-benzoylamino)-5-oxo-pentanoylamino]-4-(naphthalen-1-ylcarbamoyl)-butyric acid] | 44 nM | 12 nM
13 | CN(Cc1ccccc1)C(=O)C[C@H](NC(=O)CCC(NC(=O)c1cc(Cl)cc(Cl)c1)C(=O)N1CCC2(CCCC2)CC1)C(=O)O (stereo partly drawn) [(S)-2-[5-(8-Aza-spiro[4.5]dec-8-yl)-4-(3,5-dichloro-benzoylamino)-5-oxo-pentanoylamino]-N-benzyl-N-methyl-succinamic acid] | 158 nM | 44 nM
14 | O=C(O)C[C@H](NC(=O)CCC(NC(=O)c1cc(Cl)cc(Cl)c1)C(=O)N1CCC2(CCCC2)CC1)C(=O)Nc1cccc2ccccc12 (stereo partly drawn) [(S)-3-[5-(8-Aza-spiro[4.5]dec-8-yl)-4-(3,5-dichloro-benzoylamino)-5-oxo-pentanoylamino]-N-naphthalen-1-yl-succinamic acid] | 215 nM | 19 nM
15 | O=C(O)CC[C@H](NC(=O)CCC(NC(=O)c1cc(Cl)cc(Cl)c1)C(=O)N1CCC2(CCCC2)CC1)C(=O)NC1CCCc2ccccc21 (stereo partly drawn) [(S)-4-[5-(8-Aza-spiro[4.5]dec-8-yl)-4-(3,5-dichloro-benzoylamino)-5-oxo-pentanoylamino]-4-(1,2,3,4-tetrahydro-naphthalen-1-ylcarbamoyl)-butyric acid] | 46 nM | 9 nM
16 | O=C(O)CC[C@H](NC(=O)CCC(NC(=O)c1cc(Cl)cc(Cl)c1)C(=O)N1CCC2(CCCC2)CC1)C(=O)Nc1cccc2c1CCCC2 (stereo partly drawn) [(S)-4-[5-(8-Aza-spiro[4.5]dec-8-yl)-4-(3,5-dichloro-benzoylamino)-5-oxo-pentanoylamino]-4-(5,6,7,8-tetrahydro-naphthalen-1-ylcarbamoyl)-butyric acid] | 57 nM | 16 nM
17 | O=C(O)CC[C@H](NC(=O)CCC(NC(=O)c1cc(Cl)cc(Cl)c1)C(=O)N1CCC2(CCCC2)CC1)C(=O)Nc1ccc2c(c1)CCC2 (stereo partly drawn) [(S)-4-[5-(8-Aza-spiro[4.5]dec-8-yl)-4-(3,5-dichloro-benzoylamino)-5-oxo-pentanoylamino]-4-(indan-5-ylcarbamoyl)-butyric acid] | 727 nM | 118 nM
18 | O=C(O)CC[C@H](NC(=O)CCC(NC(=O)c1cc(Cl)cc(Cl)c1)C(=O)N1CCC2(CCCC2)CC1)C(=O)Nc1cccc2ccccc12 (stereo partly drawn) [(S)-4-[5-(8-Aza-spiro[4.5]dec-8-yl)-4-(3,5-dichloro-benzoylamino)-5-oxo-pentanoylamino]-4-(naphthalen-1-ylcarbamoyl)-butyric acid] | 20 nM | 7 nM
19 | O=C(O)CC[C@H](NC(=O)CCC(NC(=O)c1cc(Cl)cc(Cl)c1)C(=O)N1CCC2(CCCC2)CC1)C(=O)Nc1cccc2ncccc12 (stereo partly drawn) [(S)-4-[5-(8-Aza-spiro[4.5]dec-8-yl)-4-(3,5-dichloro-benzoylamino)-5-oxo-pentanoylamino]-4-(quinolin-5-ylcarbamoyl)-butyric acid; hydrochloride] | 136 nM | 76 nM
20 | O=C(O)CC[C@H](NC(=O)CCC(NC(=O)c1cc(Cl)cc(Cl)c1)C(=O)N1CCC2(CCCC2)CC1)C(=O)Nc1cccc2cccnc12 (stereo partly drawn) [(S)-4-[5-(8-Aza-spiro[4.5]dec-8-yl)-4-(3,5-dichloro-benzoylamino)-5-oxo-pentanoylamino]-4-(quinolin-8-ylcarbamoyl)-butyric acid; hydrochloride] | 108 nM | 54 nM
21 | CCCCCN(CCCCC)C(=O)[C@H](CCC(=O)O)NC(=O)CCC(NC(=O)c1cc(Cl)cc(Cl)c1)C(=O)N1CCC2(CCCC2)CC1 (stereo partly drawn) [(S)-4-[5-(8-Aza-spiro[4.5]dec-8-yl)-4-(3,5-dichloro-benzoylamino)-5-oxo-pentanoylamino]-4-dipentylcarbamoyl-butyric acid] | 135 nM | 48 nM
22 | CCCN(CCC)C(=O)[C@H](CCC(=O)O)NC(=O)CCC(NC(=O)c1cc(Cl)cc(Cl)c1)C(=O)N1CCC2(CCCC2)CC1 (stereo partly drawn) [(S)-4-[5-(8-Aza-spiro[4.5]dec-8-yl)-4-(3,5-dichloro-benzoylamino)-5-oxo-pentanoylamino]-4-dipropylcarbamoyl-butyric acid] | 299 nM | 119 nM
23 | O=C(O)CC[C@H](NC(=O)CCC(NC(=O)c1cc(Cl)cc(Cl)c1)C(=O)N1CCC2(CCCC2)CC1)C(=O)N1CCc2ccccc2C1 (stereo partly drawn) [(S)-4-[5-(8-Aza-spiro[4.5]dec-8-yl)-4-(3,5-dichloro-benzoylamino)-5-oxo-pentanoylamino]-5-(3,4-dihydro-1H-isoquinolin-2-yl)-5-oxo-pentanoic acid] | 140 nM | 49 nM
24 | O=C(O)CC[C@H](NC(=O)CCC(NC(=O)c1cc(Cl)cc(Cl)c1)C(=O)N1CCC2(CCCC2)CC1)C(=O)N1CCC2CCCCC2C1 (stereo partly drawn) [(S)-4-[5-(8-Aza-spiro[4.5]dec-8-yl)-4-(3,5-dichloro-benzoylamino)-5-oxo-pentanoylamino]-5-(octahydro-isoquinolin-2-yl)-5-oxo-pentanoic acid] | 185 nM | 28 nM
25 | O=C(O)CC[C@H](NC(=O)CCC(NC(=O)c1cc(Cl)cc(Cl)c1)C(=O)N1CCC2(CCCC2)CC1)C(=O)N1CCC2(CCCC2)CC1 (stereo partly drawn) [(S)-5-(8-Aza-spiro[4.5]dec-8-yl)-4-[5-(8-aza-spiro[4.5]dec-8-yl)-4-(3,5-dichloro-benzoylamino)-5-oxo-pentanoylamino]-5-oxo-pentanoic acid] | 141 nM | 37 nM
26 | O=C(O)CNC(=O)CCC(NC(=O)c1cc(Cl)cc(Cl)c1)C(=O)N1CCC2(CCCC2)CC1 (centres undefined) [[5-(8-Aza-spiro[4.5]dec-8-yl)-4-(3,5-dichloro-benzoylamino)-5-oxo-pentanoylamino]-acetic acid] | 1020 nM | 1040 nM
27 | O=C(CCC(NC(=O)c1cc(Cl)cc(Cl)c1)C(=O)N1CCC2(CCCC2)CC1)NC(C(=O)O)c1ccccc1 (centres undefined) [[5-(8-Aza-spiro[4.5]dec-8-yl)-4-(3,5-dichloro-benzoylamino)-5-oxo-pentanoylamino]-phenyl-acetic acid] | 390 nM | 80 nM
